In patent publication US20040235070A1, “Immune reactivity to expressed activated oncogenes for diagnosis and treatment of malignancy” (Washington Research Foundation, priority 1990, published 2004):

How the values were obtained:
[1] = tested on: lymph node and splenic lymphocytes from immunized mice; test: Proliferation of lymph node and spleen lymphocytes from mice immunized with bcr3-abl2 peptide; type: cell-based; conditions: BALB/c mice immunized with bcr3-abl2 12 mer peptide
Experimental: Ten days following immunization with peptide, draining lymph node cells (Panel A) and spleen cells (Panel B) were cultured alone or with bcr3-abl2 12 mer peptide, or bcr2-abl2 12 mer peptide, or ras-c12 12 mer peptide at 25 μg/ml, and assayed after 96 hours for proliferation by [^3H] thymidine uptake. The data represent the mean of triplicate determinations of the c.p.m.+S.D.
Mice (female BALB/c and C57BL/6 (B6), 6 to 8 weeks old; Jackson Laboratories, Bar Harbor, Me.) were inoculated twice at 2-week intervals by subcutaneous injection with Complete Freund's Adjuvant (Sigma Chemical Co., St. Louis, Mo.) alone or emulsified with bcr3-abl2 peptide (100 μg). Ten days after the final immunization, single cell suspensions of draining lymph nodes and spleens were prepared in medium consisting of 1:1 mixture of RPMI 1640 (Gibco Laboratories, Inc., Grand Island, N.Y.) and EHAA (Biofluids, Inc., Rockville, Md.) with 2.5×10^−5 M 2-ME, 200 U/ml penicillin, 200 U/ml streptomycin, 10 mM L-glutamine and 10% fetal calf serum. For proliferative assays, lymphocytes were cultured in 96-well plates at 2×10^5 cells per well with 4×10^5 irradiated syngeneic spleen cells (3,000 rad) and designated (total volume of 200 μl per well). Plates were incubated in a humidified atmosphere under 5% CO2 tension at 37° C. for 72 hours, and then pulsed for 18 hours with […] of [^3H]-thumidine per well. […]

[2] = tested on: bcr3-abl2 peptide-specific CD4^+ T cell clones; test: Proliferative assay of bcr3-abl2 peptide-specific CD4+ T cell clones ([3H] thymidine incorporation); type: cell-based, BALB/c mice; conditions: for [^3H] Thymidine Incorporation (c.p.m.) after Stimulation / [^3H] Thymidine Incorporation (c.p.m.): 96-hour culture; for [^3H] Thymidine Incorporation (c.p.m.): Table 2; for [^3H] Thymidine Incorporation (c.p.m.) after Stimulation with bcr3-abl2 peptide (5 μg/ml): peptides of varying lengths 5 μg/ml, 96 hour culture, Table 4
Experimental: Mice (female BALB/c and C57BL/6 (B6), 6 to 8 weeks old; Jackson Laboratories, Bar Harbor, Me.) were inoculated twice at 2-week intervals by subcutaneous injection with Complete Freund's Adjuvant (Sigma Chemical Co., St. Louis, Mo.) alone or emulsified with bcr3-abl2 peptide (100 μg). Ten days after the final immunization, single cell suspensions of draining lymph nodes and spleens were prepared in medium consisting of 1:1 mixture of RPMI 1640 (Gibco Laboratories, Inc., Grand Island, N.Y.) and EHAA (Biofluids, Inc., Rockville, Md.) with 2.5×10^−5 M 2-ME, 200 U/ml penicillin, 200 U/ml streptomycin, 10 mM L-glutamine and 10% fetal calf serum. For proliferative assays, lymphocytes were cultured in 96-well plates at 2×10^5 cells per well with 4×10^5 irradiated syngeneic spleen cells (3,000 rad) and designated (total volume of 200 μl per well). Plates were incubated in a humidified atmosphere under 5% CO2 tension at 37° C. for 72 hours, and then pulsed for 18 hours with […] of [^3H]-thumidine per well. Proliferative responses of cloned T cells utilized 2×10^4 cells per well with 5×10^5 irradiated syngeneic spleen cells (3,000 rad) and designated peptide.
Lymphocytes from the draining lymph nodes of mice immunized with bcr3-abl2 peptide were cultured in 24-well culture plates at 4×10^6 cells per well with 2×10^6 irradiated syngeneic spleen cells and bcr3-abl2 peptide at 25 μg/ml (total volume 2 ml). The plates were cultured in a humidified atmosphere under 5% CO2 tension at 37° C. for 5 days then split 1:2. After 10 days, lymphocytes were restimulated at 1×10^6 lymphocytes per well in 24-well culture plates with 5×10^6 irradiated syngeneic spleen cells and peptide (25 μg/ml). Two days after the second in vitro stimulation, T cells were-plated at 0.5 cells per well in 96-well flat-bottom plates with 1×10^6 irradiated syngeneic spleen cells and rIL-2 (50 U/ml). Derived T cell clones were maintained by periodic stimulation with peptide (1 μg/ml) plus irradiated syngeneic spleen cells followed by expansion with rIL-2 (10 U/ml) every 2 weeks. T cell clones were stained with FITC-conjugated anti-Thy 1.2 (1%), or FITC-conjugated anti-Lyt2 (2%), or PE-conjugated anti-L3T4 (3%) mAbs (Becton Dickinson Immunocytochemistry Systems, Mountain View, Calif.) at 4° C. for 45 minutes.

Sequence: G F K Q S S K A L Q R P (GFKQSSKALQRP) [bcr3-abl2 12 mer peptide, 12 amino acid peptide identical to the joining region of p210 bcr-abl (bcr exon 3 fused to c-abl exon 2)]
- proliferation in vitro of lymph node and splenic lymphocytes [1]: proliferated in vitro
- [^3H] Thymidine Incorporation (c.p.m.) after Stimulation ([2]; T cell clone 1D2, peptide 0.04 μg/ml): 16,423 c.p.m.
- [^3H] Thymidine Incorporation (c.p.m.) after Stimulation ([2]; T cell clone 1D2, peptide 0.2 μg/ml): 91,251 c.p.m.
- [^3H] Thymidine Incorporation (c.p.m.) after Stimulation ([2]; T cell clone 1D2, peptide 1 μg/ml): 183,229 c.p.m.
- [^3H] Thymidine Incorporation (c.p.m.) ([2]; T cell clone 1D2, peptide 5 μg/ml): 274,701 c.p.m.
- [^3H] Thymidine Incorporation (c.p.m.) after Stimulation ([2]; T cell clone 1D2, peptide 5 μg/ml, Table 3): 259,018 c.p.m.
- [^3H] Thymidine Incorporation (c.p.m.) after Stimulation ([2]; T cell clone 1D2, peptide 25 μg/ml): 66,329 c.p.m.
- [^3H] Thymidine Incorporation (c.p.m.) after Stimulation with bcr3-abl2 peptide (5 μg/ml) ([2]; T cell clone 1D2): 120,049 c.p.m.
- [^3H] Thymidine Incorporation (c.p.m.) after Stimulation ([2]; T cell clone 2B12, peptide 0.04 μg/ml): 4,132 c.p.m.
- [^3H] Thymidine Incorporation (c.p.m.) after Stimulation ([2]; T cell clone 2B12, peptide 0.2 μg/ml): 71,651 c.p.m.
- [^3H] Thymidine Incorporation (c.p.m.) after Stimulation ([2]; T cell clone 2B12, peptide 1 μg/ml): 213,089 c.p.m.
- [^3H] Thymidine Incorporation (c.p.m.) ([2]; T cell clone 2B12, peptide 5 μg/ml): 109,319 c.p.m.
- [^3H] Thymidine Incorporation (c.p.m.) after Stimulation ([2]; T cell clone 2B12, peptide 5 μg/ml, Table 3): 229,010 c.p.m.
- [^3H] Thymidine Incorporation (c.p.m.) after Stimulation ([2]; T cell clone 2B12, peptide 25 μg/ml): 132,620 c.p.m.
- [^3H] Thymidine Incorporation (c.p.m.) after Stimulation ([2]; T cell clone 2D4, peptide 0.04 μg/ml): 12,599 c.p.m.
- [^3H] Thymidine Incorporation (c.p.m.) after Stimulation ([2]; T cell clone 2D4, peptide 0.2 μg/ml): 150,711 c.p.m.
- [^3H] Thymidine Incorporation (c.p.m.) after Stimulation ([2]; T cell clone 2D4, peptide 1 μg/ml): 256,606 c.p.m.
- [^3H] Thymidine Incorporation (c.p.m.) ([2]; T cell clone 2D4, peptide 5 μg/ml): 262,799 c.p.m.
- [^3H] Thymidine Incorporation (c.p.m.) after Stimulation ([2]; T cell clone 2D4, peptide 5 μg/ml, Table 3): 182,266 c.p.m.
- [^3H] Thymidine Incorporation (c.p.m.) after Stimulation ([2]; T cell clone 2D4, peptide 25 μg/ml): 42,623 c.p.m.
- [^3H] Thymidine Incorporation (c.p.m.) after Stimulation ([2]; T cell clone 2E3, peptide 0.04 μg/ml): 1,475 c.p.m.
- [^3H] Thymidine Incorporation (c.p.m.) after Stimulation ([2]; T cell clone 2E3, peptide 0.2 μg/ml): 93,921 c.p.m.
- [^3H] Thymidine Incorporation (c.p.m.) after Stimulation ([2]; T cell clone 2E3, peptide 1 μg/ml): 273,273 c.p.m.
- [^3H] Thymidine Incorporation (c.p.m.) ([2]; T cell clone 2E3, peptide 5 μg/ml): 293,219 c.p.m.
- [^3H] Thymidine Incorporation (c.p.m.) after Stimulation ([2]; T cell clone 2E3, peptide 5 μg/ml, Table 3): 407,729 c.p.m.
- [^3H] Thymidine Incorporation (c.p.m.) after Stimulation ([2]; T cell clone 2E3, peptide 25 μg/ml): 358,253 c.p.m.
- [^3H] Thymidine Incorporation (c.p.m.) after Stimulation ([2]; T cell clone 2E10, peptide 0.04 μg/ml): 26,195 c.p.m.
- [^3H] Thymidine Incorporation (c.p.m.) after Stimulation ([2]; T cell clone 2E10, peptide 0.2 μg/ml): 235,103 c.p.m.
- [^3H] Thymidine Incorporation (c.p.m.) after Stimulation ([2]; T cell clone 2E10, peptide 1 μg/ml): 333,056 c.p.m.
- [^3H] Thymidine Incorporation (c.p.m.) ([2]; T cell clone 2E10, peptide 5 μg/ml): 242,633 c.p.m.
- [^3H] Thymidine Incorporation (c.p.m.) after Stimulation ([2]; T cell clone 2E10, peptide 5 μg/ml, Table 3): 312,783 c.p.m.
- [^3H] Thymidine Incorporation (c.p.m.) after Stimulation ([2]; T cell clone 2E10, peptide 25 μg/ml): 131,643 c.p.m.
- [^3H] Thymidine Incorporation (c.p.m.) after Stimulation with bcr3-abl2 peptide (5 μg/ml) ([2]; T cell clone 2E10): 96,525 c.p.m.
- [^3H] Thymidine Incorporation (c.p.m.) after Stimulation ([2]; T cell clone 3B7, peptide 0.04 μg/ml): 60,957 c.p.m.
- [^3H] Thymidine Incorporation (c.p.m.) after Stimulation ([2]; T cell clone 3B7, peptide 0.2 μg/ml): 56,967 c.p.m.
- [^3H] Thymidine Incorporation (c.p.m.) after Stimulation ([2]; T cell clone 3B7, peptide 1 μg/ml): 111,212 c.p.m.
- [^3H] Thymidine Incorporation (c.p.m.) ([2]; T cell clone 3B7, peptide 5 μg/ml): 64,935 c.p.m.
- [^3H] Thymidine Incorporation (c.p.m.) after Stimulation ([2]; T cell clone 3B7, peptide 5 μg/ml, Table 3): 149,640 c.p.m.
- [^3H] Thymidine Incorporation (c.p.m.) after Stimulation ([2]; T cell clone 3B7, peptide 25 μg/ml): 53,441 c.p.m.
- [^3H] Thymidine Incorporation (c.p.m.) after Stimulation ([2]; T cell clone 3E11, peptide 0.04 μg/ml): 91,240 c.p.m.
- [^3H] Thymidine Incorporation (c.p.m.) after Stimulation ([2]; T cell clone 3E11, peptide 0.2 μg/ml): 135,985 c.p.m.
- [^3H] Thymidine Incorporation (c.p.m.) after Stimulation ([2]; T cell clone 3E11, peptide 1 μg/ml): 189,843 c.p.m.
- [^3H] Thymidine Incorporation (c.p.m.) ([2]; T cell clone 3E11, peptide 5 μg/ml): 263,425 c.p.m.
- [^3H] Thymidine Incorporation (c.p.m.) after Stimulation ([2]; T cell clone 3E11, peptide 5 μg/ml, Table 3): 130,633 c.p.m.
- [^3H] Thymidine Incorporation (c.p.m.) after Stimulation ([2]; T cell clone 3E11, peptide 25 μg/ml): 40,755 c.p.m.
- [^3H] Thymidine Incorporation (c.p.m.) after Stimulation ([2]; T cell clone 3G2, peptide 0.04 μg/ml): 9,440 c.p.m.
- [^3H] Thymidine Incorporation (c.p.m.) after Stimulation ([2]; T cell clone 3G2, peptide 0.2 μg/ml): 49,602 c.p.m.
- [^3H] Thymidine Incorporation (c.p.m.) after Stimulation ([2]; T cell clone 3G2, peptide 1 μg/ml): 150,799 c.p.m.
- [^3H] Thymidine Incorporation (c.p.m.) ([2]; T cell clone 3G2, peptide 5 μg/ml): 30,846 c.p.m.
- [^3H] Thymidine Incorporation (c.p.m.) after Stimulation ([2]; T cell clone 3G2, peptide 5 μg/ml, Table 3): 168,387 c.p.m.
- [^3H] Thymidine Incorporation (c.p.m.) after Stimulation ([2]; T cell clone 3G2, peptide 25 μg/ml): 132,024 c.p.m.
- [^3H] Thymidine Incorporation (c.p.m.) after Stimulation ([2]; T cell clone 3G3, peptide 0.04 μg/ml): 11,510 c.p.m.
- [^3H] Thymidine Incorporation (c.p.m.) after Stimulation ([2]; T cell clone 3G3, peptide 0.2 μg/ml): 18,403 c.p.m.
- [^3H] Thymidine Incorporation (c.p.m.) after Stimulation ([2]; T cell clone 3G3, peptide 1 μg/ml): 93,219 c.p.m.
- [^3H] Thymidine Incorporation (c.p.m.) ([2]; T cell clone 3G3, peptide 5 μg/ml): 61,521 c.p.m.
- [^3H] Thymidine Incorporation (c.p.m.) after Stimulation ([2]; T cell clone 3G3, peptide 5 μg/ml, Table 3): 143,670 c.p.m.
- [^3H] Thymidine Incorporation (c.p.m.) after Stimulation ([2]; T cell clone 3G3, peptide 25 μg/ml): 101,280 c.p.m.
- response of bcr3-abl2 peptide-specific T cell clones (in words) ([2]; proliferative assay with irradiated syngeneic APC): responded specifically
- lowest concentration to which clones responded vigorously ([2]; some clones, lowest concentration tested): 0.04 µg/mL
